Laboratory results published in BindingDB's records for doi:10.1016/j.ejmech.2018.09.067 (University of Louvain, 2018).

Columns and labels:
[1] = Inhibition of human thrombin using Z-GPR-AMC as substrate after 30 mins by fluorimetric analysis
[2] = Inhibition of human MAOA using kynuramine as substrate after 20 mins by spectrophotometric analysis
[3] = Inhibition of human recombinant PDE3A using [3H]cAMP after 20 mins by scintillation counting analysis
[4] = Inhibition of human IDO using L-tryptophan as substrate after 30 mins by Ehrlich's reagent based assay
[5] = Inhibition of human recombinant COX1 using arachidonic acid as substrate after 3 mins by fluorimetric analysis
[6] = Inhibition of human recombinant ACE using Abz-FRK(Dnp)-P-OH as substrate after 30 mins by fluorimetric analysis
[7] = Displacement of [3H]CP 55940 from human recombinant CB1 receptor after 120 mins by scintillation counting analysis
[8] = Inhibition of human recombinant Lck using Ulight-Poly GAT[EAY(1:1:1)]n as substrate after 10 mins by LANCE analysis
[9] = Displacement of [3H]8-OH-DPAT from recombinant human 5-HT1A receptor after 60 mins by scintillation counting analysis
[10] = Displacement of [125I]pirenzepine from human recombinant M1 receptor after 60 mins by scintillation counting analysis
[11] = Inhibition of human recombinant full-length LDHA using sodium pyruvate as substrate after 60 mins by resazurin dye-based assay
[12] = Inhibition of human carbonic anhydrase 2 using 4-nitrophenyl acetate as substrate after 20 mins by spectrophotometric analysis
[13] = Displacement of [3H]muscimol from recombinant human GABAalpha1beta2gamma2 measured after 120 mins by scintillation counting method
[14] = Inhibition of human recombinant acetylcholinesterase using acetylthiocholine as substrate after 30 mins by spectrophotometric analysis
[15] = Inhibition of human recombinant C-terminal His-tagged PHGDH (1 to 533 residues) expressed in Escherichia coli using 3-phosphoglycerate as substrate
[16] = Displacement of [3H]WY 14643 from human recombinant PPARalpha receptor at 10 uM after 120 mins by scintillation counting analysis relative to control
[17] = Inhibition of human recombinant Arg1 using L-arginine as substrate after 5 mins in presence of [guanidino-14C]-L-arginine by liquid scintillation counting analysis

O=C(NNC(=S)Nc1ccc(Cl)c(Cl)c1)c1ccccc1O
IC50 (Inhibition of human MAGL): 0.363 µM | IC50 [1]: 0.000103 µM | IC50 [2]: 0.04 µM | IC50 [3]: 0.49 µM | IC50 [4]: 37 µM | IC50 [5]: 0.008 µM | IC50 [6]: 0.0007 µM | IC50 [7]: 0.00058 µM | IC50 [8]: 0.031 µM | IC50 [9]: 0.0006 µM | IC50 [10]: 0.022 µM | IC50 [11]: 577 µM | IC50 [12]: 0.029 µM | IC50 [13]: 0.075 µM | IC50 [14]: 0.52 µM | IC50 [15]: 8.7 µM | IC50 [16]: 0.052 µM | IC50 [17]: 13 µM
